# Tested on: human sperm
# Test: Ex vivo incubation of human semen samples with urolithin A, motility by computer-assisted semen analysis (CEROS II)
# Format: cell-based
# Conditions: for Motile sperm concentration (million/mL), UA vs. DMSO: 4 hours incubation at 36° C.; for Motile sperm concentration (million/mL), UA vs. DMSO / BCF Beat Cross-Frequency, UA vs. DMSO / Rapid progressive motile sperm concentration (million/mL), UA vs. DMSO: increase vs. DMSO; for Rapid progressive motile sperm concentration (million/mL), UA vs. DMSO: rapid progressive motility >25 μm/s; for motile sperm concentration: increase
# Description: Sperm samples from five healthy men donors were processed within 1 hour of collection. 3 samples were either diluted 1:1 in culture media containing DMSO or urolithin A (UA) (0.05, 0.1, 0.5, and 2.0 μM in DMSO). For these samples, all treatments contained the same amount of DMSO. Two samples were pre-diluted in culture media, which was then diluted in the treatment solutions, immediately. This was to decrease the eventual effect of seminal plasma. Samples were incubated for 4 hours with the indicated UA doses. For the study, semen samples were obtained by masturbation after 2-7 days of ejaculatory abstinence, according to World Health Organization Guidelines (https://www.who.int/publications/i/item/9789240030787). Samples were collected into sterile wide-mouth polypropylene containers tested for sperm toxicity (BIRR semen collection container, IVF store code 113102). After collection, samples were kept in an air incubator for 1 hour, until semen liquefaction. For experiments, a 50 mM stock Urolithin A (UA) solution was prepared in Dimethyl Sulfoxide (DMSO, Fisher Scientific, BP231-100). At the day of the experiments, a working solution was prepared by diluting the 50 mM stock solution 1:1000 in Sperm Washing Medium (FujiFilm Modified HTF Medium with Human Serum Albumin, 5.0 mg/mL, catalog ID: 9983). A blank working solution containing only DMSO was also prepared by diluting DMSO 1:1000 in Sperm Washing Medium. Treatment solutions were then prepared containing 0, 0.1 μM, 0.2 μM, 1.0 μM, and 4.0 μM were prepared as follows: Treatment solutions were then diluted 1:1 with raw semen (samples A, B, and D) or with semen that had been pre-diluted 1:1 in Sperm Washing Medium (samples C and E), so that final achieved treatment concentrations were 0 (blank, DMSO only, 0.05 µM, 0.1 μM, 0.5 μM, and 2.0 µM UA. This was incubated at 36° C. for 4 hours, after which motility was assessed using a CEROS II system for computer-assisted semen analysis (Hamilton Thorne Inc., Beverly, MA, USA). To achieve this, 4-chamber 20 μm Leja slides (IMV International Ref. 025107-025108) were pre-heated at 37° C. 2.5 μL of each sample was pipetted into each chamber, and the Human Motility module of the CEROS II system was used to capture multiple fields (at least 6) in order to determine sperm motility parameters.
# [1] = all doses (0.05, 0.1, 0.5, 2.0 μM), 4 hours incubation
smiles,measurement,setting,value
"O=c1oc2cc(O)ccc2c2ccc(O)cc12 [UA, Urolithin A]","Motile sperm concentration (million/mL), UA vs. DMSO",0.05 uM UA,2%
same,"BCF Beat Cross-Frequency, UA vs. DMSO","0.05 uM UA, 4 hours incubation, motile sperm",5%
same,"Rapid progressive motile sperm concentration (million/mL), UA vs. DMSO","0.05 uM UA, 4 hours incubation",2%
same,"Motile sperm concentration (million/mL), UA vs. DMSO",0.1 uM UA,16.8%
same,"BCF Beat Cross-Frequency, UA vs. DMSO","0.1 uM UA, 4 hours incubation, motile sperm",6%
same,"Rapid progressive motile sperm concentration (million/mL), UA vs. DMSO","0.1 uM UA, 4 hours incubation",20%
same,"Motile sperm concentration (million/mL), UA vs. DMSO",0.5 uM UA,10.7%
same,"BCF Beat Cross-Frequency, UA vs. DMSO","0.5 uM UA, 4 hours incubation, motile sperm",9%
same,"Rapid progressive motile sperm concentration (million/mL), UA vs. DMSO","0.5 uM UA, 4 hours incubation",10%
same,"Motile sperm concentration (million/mL), UA vs. DMSO",2 uM UA,21.4%
same,"BCF Beat Cross-Frequency, UA vs. DMSO","2 uM UA, 4 hours incubation, motile sperm",7%
same,"Rapid progressive motile sperm concentration (million/mL), UA vs. DMSO","2 uM UA, 4 hours incubation",20%
same,"Motile sperm concentration, effect in words",[1],increased at all doses
same,"Rapid progressive motile sperm concentration, effect in words",[1],increased at all doses
same,"Beat Cross-Frequency, effect in words","all doses (0.05, 0.1, 0.5, 2.0 μM), motile sperm, 4 hours incubation",an increase by UA at all doses
same,"sperm motility / sperm health, effect in words","applied ex vivo to human sperm, especially 0.1 uM to 2 uM",increases sperm motility
same,motile sperm concentration,"highest UA 2 μM dose, 4 hours incubation",20%
same,motile sperm concentration,"lower dose of UA 0.05 μM, 4 hours incubation",2%
